# Reference: patent US20110275559A1, “Long-Acting Y2 and/or Y4 Receptor Agonists” (Novo Nordisk A/S, priority 2008, published 2011)
# Marks after values point to notes of the source that are not given here. *1 amine or outer side, *2 acyl side, *3 side chain or, on linkers, in order; H or OH if unused. Where a SMILES comes first, the peptide text is derived from it. Where no end group is shown, it is not given here. Side-chain parts run from the residue outwards. The star is where a group is joined. C20 diacid = O=C(O)CCCCCCCCCCCCCCCCCCC(=O)*; γGlu = O=C(O)[C@H](CCC(=O)[*:2])N[*:1]; Trx = NC[C@H]1CC[C@H](C(=O)O)CC1; AEEA = NCCOCCOCC(=O)O
# T1: Y2 receptor (Homo sapiens, UniProt P49146)
# T1 construct: host or cells: ACTOne HEK-293 cells
# T1 sequence (P49146 1-381): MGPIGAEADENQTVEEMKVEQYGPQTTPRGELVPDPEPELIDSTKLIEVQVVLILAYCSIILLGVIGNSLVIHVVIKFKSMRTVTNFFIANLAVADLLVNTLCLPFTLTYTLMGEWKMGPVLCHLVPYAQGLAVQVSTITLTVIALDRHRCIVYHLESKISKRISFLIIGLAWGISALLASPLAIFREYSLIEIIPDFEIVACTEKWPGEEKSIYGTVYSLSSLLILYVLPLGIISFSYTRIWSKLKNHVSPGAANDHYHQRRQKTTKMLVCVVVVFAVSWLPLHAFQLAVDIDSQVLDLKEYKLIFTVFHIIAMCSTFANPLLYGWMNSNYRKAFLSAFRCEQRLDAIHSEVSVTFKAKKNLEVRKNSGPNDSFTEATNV
# T2: Y2 receptor (UniProt P49146 1-381, limits assumed)
# T2 sequence (looked up): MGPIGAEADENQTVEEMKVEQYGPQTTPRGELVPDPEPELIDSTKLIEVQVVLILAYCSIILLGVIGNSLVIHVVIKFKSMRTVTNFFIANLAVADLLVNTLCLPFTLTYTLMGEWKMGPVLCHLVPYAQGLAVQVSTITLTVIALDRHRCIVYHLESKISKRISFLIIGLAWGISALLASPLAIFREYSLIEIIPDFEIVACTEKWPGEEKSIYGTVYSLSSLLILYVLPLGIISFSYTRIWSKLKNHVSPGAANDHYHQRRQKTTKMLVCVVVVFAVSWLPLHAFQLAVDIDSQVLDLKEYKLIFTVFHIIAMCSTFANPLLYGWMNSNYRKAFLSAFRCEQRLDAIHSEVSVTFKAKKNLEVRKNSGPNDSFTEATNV
# Key:
# [1] = in vivo; conditions: Göttingen, minipig
# In short: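 Catheterised mini-pigs received compound i.v. at 10 nmol/kg in pH 4.0 phosphate/NaCl/tween vehicle, or alternatively i.v. or s.c. at 1–30 nmol/kg in pH 8.0 K2HPO4/tween. Stabilised plasma was sampled up to 13 days and assayed by LC-MS (LLOQ 2 nM). Half-life came from non-compartmental analysis of individual animal profiles.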
# [2] = tested on: lean C57BL/6 mice; test: Acute food intake in fasted lean mice (BioDAQ, fasting-induced refeeding); format: in vivo; conditions: for Mean cumulative food intake / Mean cumulative food intake [g]: Table 5, Study 6A
# Protocol: Acute food intake in mice: Lean C57BL male mice are obtained from Charles River, Japan. They are maintained on a 12:12 light:dark cycle (lights off at 10:00 AM, lights on at 10:00 PM), fed pelleted D12450B rodent diet (Research Diets, Inc., New Brunswick, N.J.), and allowed water ad libitum. The mice arrive at 7-8 weeks of age and are acclimatized in the BioDAQ system a minimum of two weeks prior to study. On the day of study, mice are 9-12 weeks old. They are fasted overnight (20-24 h) with free access to water. The day of the study, mice are dosed with s.c. injection (dose volume=10 mL/kg), returned to their cage, and pre-weighed food is immediately placed in the cage. […] When the mice eat the weight reduction of the content of the food-tray is registered. Data is registered each time there is a change in the weight of the individual food-tray. Cumulative food intake is calculated by subtracting the food weight at each time point from the starting food weight.
# Mice were administrated a single dose of the peptides (1 μmol/kg s.c.) 30 min before food return and cumulative food intake was measured over 24 h. […] One way ANOVA was carried for each time point out using the software Graph-Pad Prism, version 5.0. The statistical method used for the data in FIG. 1A was an unpaired t-test using the software Graph-Pad Prism, version 5.0. The statistical method used for the data in FIG. 1B and Table 4 was ANOVA, Dunnetts post hoc. Stars in FIGS. 1A and 1B indicate significance versus the vehicle group *) p<0.05, **) p<0.01, ***) p<0.001.
# Fasted lean C57BL/6 mice were administrated a single subcutaneous injection of vehicle or peptide approximately 30 min before food return and the cumulative food intake was measured subsequently. One way ANOVA was carried out for each time point using the software Graph-Pad Prism, version 5.0.
# [3] = Adrian T. E. et al, Gut (1978), 19, pp 907-909; cited from earlier work
# [4] = biological target: T3, Y4 receptor (Homo sapiens, UniProt P50391); test: Y4 receptor ACTOne based FLIPR assay (cAMP biosensor); format: cell-based
# T3 construct: host or cells: ACTOne HEK-293 cells
# [5] = biological target: T1, Y2 receptor; test: Y2 receptor ACTOne based FLIPR assay (cAMP biosensor); format: cell-based
# [6] = biological target: T2, Y2 receptor; test: cell-based or functional assay
# T3 sequence (P50391 whole entry): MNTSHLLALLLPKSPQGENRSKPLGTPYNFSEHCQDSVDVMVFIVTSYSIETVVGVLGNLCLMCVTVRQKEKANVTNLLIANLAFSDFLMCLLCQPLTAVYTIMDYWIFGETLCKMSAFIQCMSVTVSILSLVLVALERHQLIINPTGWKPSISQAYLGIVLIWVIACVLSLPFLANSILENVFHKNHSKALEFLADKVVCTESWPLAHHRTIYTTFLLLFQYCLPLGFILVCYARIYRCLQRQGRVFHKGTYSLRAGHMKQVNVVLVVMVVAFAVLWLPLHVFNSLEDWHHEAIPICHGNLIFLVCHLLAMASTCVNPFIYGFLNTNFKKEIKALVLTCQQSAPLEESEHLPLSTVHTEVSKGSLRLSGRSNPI
molecule,measurement,setting,value
"CC[C@H](C)[C@H](NC(=O)[C@H](Cc1ccc(O)cc1)NC(=O)[C@H](CCCNC(=N)N)NC(=O)[C@H](CCCNC(=N)N)NC(=O)[C@H](CC(C)C)NC(=O)[C@H](CC(=O)O)NC(=O)[C@H](C)NC(=O)[C@H](C)NC(=O)[C@H](Cc1ccc(O)cc1)NC(=O)[C@H](CCC(N)=O)NC(=O)[C@H](C)NC(=O)[C@H](CCSC)NC(=O)[C@H](CCC(N)=O)NC(=O)[C@H](CCC(=O)O)NC(=O)[C@@H]1CCCN1C(=O)[C@@H](NC(=O)[C@H](C)NC(=O)[C@H](CC(N)=O)NC(=O)[C@H](CC(=O)O)NC(=O)CNC(=O)[C@@H]1CCCN1C(=O)[C@H](Cc1ccc(O)cc1)NC(=O)[C@@H](NC(=O)[C@@H]1CCCN1C(=O)[C@H](CCC(=O)O)NC(=O)[C@H](CC(C)C)NC(=O)[C@@H]1CCCN1C(=O)[C@H](C)N)C(C)C)[C@@H](C)O)C(=O)N[C@@H](CC(N)=O)C(=O)N[C@@H](CCSC)C(=O)N[C@@H](CC(C)C)C(=O)N[C@H](C(=O)N[C@@H](CCCNC(=N)N)C(=O)N1CCC[C@H]1C(=O)N[C@@H](CCCNC(=N)N)C(=O)N[C@@H](Cc1ccc(O)cc1)C(N)=O)[C@@H](C)O [SEQ ID NO: 2, hPP(1-36)]",half-life,"[1]; iv, 15 nmol/kg",0.035 h
same,half-life,"[1]; iv, 45 nmol/kg",0.031 h
same,time after administration at which the effect in reducing food intake has disappeared,"[2]; Study 6A, fasted lean C57BL/6 mice, 1.0 μmol/kg s.c.",12 h
same,Mean cumulative food intake,"[2]; fasted lean C57BL/6 mice, single 1.0 μmol/kg s.c., 4 hours after injection, vehicle 1.51",1.18 g
same,Mean cumulative food intake [g],"[2]; mice, 1.0 μmol/kg s.c., 6 hours after injection, vehicle 2.04",1.51** g
same,Mean cumulative food intake [g],"[2]; mice, 1.0 μmol/kg s.c., 8 hours after injection, vehicle 2.61",1.98** g
same,Mean cumulative food intake,"[2]; mice, 1.0 μmol/kg s.c., 12 hours after injection, vehicle 3.49",3.19 g
same,Mean cumulative food intake,"[2]; mice, 1.0 μmol/kg s.c., 24 hours after injection, vehicle 4.35",3.87 g
same,Mean cumulative food intake,"[2]; mice, 1.0 μmol/kg s.c., 36 hours after injection, vehicle 8.41",7.93 g
same,Mean cumulative food intake,"[2]; mice, 1.0 μmol/kg s.c., 48 hours after injection, vehicle 8.87",8.56 g
same,half-life reported in man,[3],7 min
"CC[C@H](C)[C@H](NC(=O)[C@H](Cc1ccc(O)cc1)NC(=O)[C@H](CCCNC(=N)N)NC(=O)[C@H](CCCNC(=N)N)NC(=O)[C@H](CC(C)C)NC(=O)[C@H](CC(=O)O)NC(=O)[C@H](C)NC(=O)[C@H](C)NC(=O)[C@H](Cc1ccc(O)cc1)NC(=O)[C@H](CCC(N)=O)NC(=O)[C@H](C)NC(=O)[C@H](CC(C)C)NC(=O)[C@H](CCC(N)=O)NC(=O)[C@H](CCC(=O)O)NC(=O)[C@@H]1CCCN1C(=O)[C@@H](NC(=O)[C@H](C)NC(=O)[C@H](CC(N)=O)NC(=O)[C@H](CC(=O)O)NC(=O)CNC(=O)[C@@H]1CCCN1C(=O)[C@H](Cc1ccc(O)cc1)NC(=O)[C@@H](NC(=O)[C@@H]1CCCN1C(=O)[C@H](CCC(=O)O)NC(=O)[C@H](CC(C)C)NC(=O)[C@@H]1CCCN1)C(C)C)[C@@H](C)O)C(=O)N[C@@H](CC(N)=O)C(=O)N[C@@H](CC(C)C)C(=O)N[C@@H](CC(C)C)C(=O)N[C@H](C(=O)N[C@@H](CCCCNC(=O)COCCOCCNC(=O)COCCOCCNC(=O)CC[C@H](NC(=O)[C@H]1CC[C@H](CNC(=O)CCCCCCCCCCCCCCCCCCC(=O)O)CC1)C(=O)O)C(=O)N1CCC[C@H]1C(=O)N[C@@H](CCCNC(=N)N)C(=O)N[C@@H](Cc1ccc(O)cc1)C(N)=O)[C@@H](C)O [SEQ ID NO: 42, N-epsilon33-[2-(2-{2-[2-(2-{2-[(S)-4-Carboxy-4-({trans-4-[(19-carboxynonadecanoylamino)methyl]cyclohexanecarbonyl}amino)butyrylamino]-ethoxy}ethoxy)acetylamino]ethoxy}ethoxy)acetyl][Leu17,Leu30,Lys33]hPP2-36] (H-PLEPVYPGDNATPEQLAQYAADLRRYINLLTK([AEEA-AEEA-γGlu-Trx-C20 diacid])PRY-NH2)",half-life,"[1]; in vivo, iv, 7 nmol/kg",116 h
same,half-life,"[1]; male, in vivo, sc, 7 nmol/kg",167 h
same,EC50,[4],> 1000 nM
same,EC50,[5],> 1000 nM
{C20 diacid-Trx-γGlu-AEEA-AEEA}-NRYYASLRHYLNLVTRQRY (ends and bridges not checked),Y2 cAMP EC50,[6],97 nM
